For one experiment, the target named is T1, human ATP8B1 (Homo sapiens, UniProt O43520).
T1 sequence (O43520 1-1251): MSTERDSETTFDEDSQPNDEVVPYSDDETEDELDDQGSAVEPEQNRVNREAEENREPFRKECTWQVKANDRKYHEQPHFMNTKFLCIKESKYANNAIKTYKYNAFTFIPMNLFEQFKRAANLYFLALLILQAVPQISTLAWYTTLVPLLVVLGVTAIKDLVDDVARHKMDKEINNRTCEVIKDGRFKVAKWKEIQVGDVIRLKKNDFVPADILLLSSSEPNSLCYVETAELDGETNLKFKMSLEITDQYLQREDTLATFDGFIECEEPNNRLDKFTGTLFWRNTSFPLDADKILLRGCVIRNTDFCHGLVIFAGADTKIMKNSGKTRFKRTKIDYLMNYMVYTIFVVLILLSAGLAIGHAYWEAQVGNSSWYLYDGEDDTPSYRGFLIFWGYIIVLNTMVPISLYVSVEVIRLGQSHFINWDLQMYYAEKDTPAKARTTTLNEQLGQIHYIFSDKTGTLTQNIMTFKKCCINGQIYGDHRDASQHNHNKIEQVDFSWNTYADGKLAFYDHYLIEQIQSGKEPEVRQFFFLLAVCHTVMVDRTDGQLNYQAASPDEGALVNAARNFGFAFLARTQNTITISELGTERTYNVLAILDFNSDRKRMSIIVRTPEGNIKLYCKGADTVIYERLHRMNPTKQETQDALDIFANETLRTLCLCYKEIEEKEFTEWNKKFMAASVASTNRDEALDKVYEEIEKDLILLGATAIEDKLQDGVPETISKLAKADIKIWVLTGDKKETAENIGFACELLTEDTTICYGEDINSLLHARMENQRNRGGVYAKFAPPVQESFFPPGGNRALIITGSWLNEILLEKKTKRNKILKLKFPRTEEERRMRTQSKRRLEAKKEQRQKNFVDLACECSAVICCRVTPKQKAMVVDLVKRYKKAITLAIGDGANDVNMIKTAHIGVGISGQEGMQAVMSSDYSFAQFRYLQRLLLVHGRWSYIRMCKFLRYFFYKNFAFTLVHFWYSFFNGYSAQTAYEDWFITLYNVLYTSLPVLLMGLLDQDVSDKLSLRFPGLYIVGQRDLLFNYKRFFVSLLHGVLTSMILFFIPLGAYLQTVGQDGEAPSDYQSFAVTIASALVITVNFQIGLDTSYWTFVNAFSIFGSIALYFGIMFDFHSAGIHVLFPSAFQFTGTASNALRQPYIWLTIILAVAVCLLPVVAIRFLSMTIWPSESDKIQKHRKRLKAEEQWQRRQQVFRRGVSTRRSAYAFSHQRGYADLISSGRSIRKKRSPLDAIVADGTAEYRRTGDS
Kind of experiment: Phospholipid-stimulated ATPase activity of full-length ATP8B1. It is filed as biochemical. The protocol: FIG. 8E is a bar graph showing ATPase activity of ATP8B1 in presence of various lipids (300 µM).
FIG. 8F is a graph showing phospholipid concentration-dependent ATPase activity of ATP8B1. Graph representing data points of three independent experiments, values are mean±SD and fitted by a non-linear dose-dependent curve.
ATP8B1 deletion may affect PIP2 translocation due to changes in membrane properties or by indirectly influencing the activity of other proteins involved in lipid trafficking. To determine if ATP8B1 can directly flip PIP2, a cell-free system was reconstituted. The GST-tagged human ATP8B1 protein was cloned in a baculovirus, followed by transduction of insect Sf9 cells, and expression was confirmed by western blot using anti-GST antibody.
(§1) Next, we utilized reconstituted ATP8B1-proteoliposomes with NBD-labeled phospholipids and sodium dithionite quenching assay to measure phospholipid flip (FIG. 8G), as described before. A marked decrease in the fluorescence intensity of NBD-PIP2 was observed following dithionite quenching of ATP8B1 containing proteoliposomes vs. control liposomes, with ˜12% NBD-PIP2 flip in 5 min, ˜22% NBD-PIP2 flip in 30 min, and ˜27% NBD-PIP2 flipped in 60 min (FIG. 8H, 8I).

Another experiment concerns the target T2, GsdmD (Homo sapiens, UniProt P57764).
T2 sequence (P57764 1-484): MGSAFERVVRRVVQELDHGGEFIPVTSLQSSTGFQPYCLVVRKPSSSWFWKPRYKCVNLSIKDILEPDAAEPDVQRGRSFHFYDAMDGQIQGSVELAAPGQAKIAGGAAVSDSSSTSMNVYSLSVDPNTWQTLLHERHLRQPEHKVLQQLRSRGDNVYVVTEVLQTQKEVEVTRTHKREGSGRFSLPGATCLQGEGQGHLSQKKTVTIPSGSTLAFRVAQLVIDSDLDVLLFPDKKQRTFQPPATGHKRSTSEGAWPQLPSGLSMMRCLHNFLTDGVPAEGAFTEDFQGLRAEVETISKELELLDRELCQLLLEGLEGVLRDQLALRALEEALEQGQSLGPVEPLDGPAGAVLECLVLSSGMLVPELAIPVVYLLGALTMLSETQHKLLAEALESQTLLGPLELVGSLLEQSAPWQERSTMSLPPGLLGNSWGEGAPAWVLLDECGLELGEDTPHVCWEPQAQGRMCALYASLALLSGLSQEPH
The note with it: cited from earlier work.

The next experiment has as its target T3, ATP8B1 proteoliposomes (Homo sapiens, UniProt O43520).
T3 construct: The ATPase activity of full-length ATP8B1 was determined in the presence of various phospholipids; GST; made in house; host or cells: Sf9 insect cells (baculovirus)
T3 sequence (O43520 1-1251): T1 sequence (O43520 1-1251)
Kind of experiment: NBD-phospholipid flip in ATP8B1 proteoliposomes, sodium dithionite quenching assay. It is filed as biochemical. The note with it: proteoliposomes vs. empty liposomes. The protocol:
FIG. 8G is a schematic diagram for PIP2 flip assay in ATP8B1 proteoliposomes vs. empty liposomes.
FIG. 8H is a graph showing sodium dithionite quenching of NBD-PIP2 on the outer side of the proteoliposomes vs. empty liposomes over 10 min, Triton-X-100 was used to quench all the remaining NBD-PIP2.
FIG. 8I is a graph showing the percentage PIP2 flipped over time in proteoliposomes vs. empty liposomes±sodium dithionite, ±Triton-X-100, data are from 3 independent experiments, values are mean±SD, **** show p<0.0001 by t-test.
FIG. 8J is a graph showing sodium dithionite quenching of NBD-PE on the outer side of the proteoliposomes vs. empty liposomes over 10 min, Triton-X-100 was used to quench the remaining inner leaflet NBD-PE.
FIG. 8K is a bar graph showing the percentage PE flip over time in proteoliposomes vs. empty liposomes±Sodium dithionite, ±Triton-X-100. […]
as §1

Experiment [1] deals with HepG2 cells (WT or ATP8b1−/−). Nature of the experiment: Confocal-microscopy-based NBD-phospholipid flip assay with BSA back-exchange. Type of experiment: cell-based, human. As to conditions: after BSA wash, up to 60 min. The protocol:
FIG. 8A is an image of WT or ATP8b1^−/− HepG2 cells pre-incubated with phospholipase inhibitors at 20° C. were supplemented with NBD-PIP2 followed by incubation for up to 60 min to allow lipid internalization. Cells were subjected to back-exchange with BSA, followed by TBSS wash, and visualization by confocal laser scanning microscopy. FIRE look-up table (ImageJ) was used to highlight intensity variations in PIP2 flip. Images are representative of three independent experiments. Scale bar: 20 μm.
FIG. 8B is an image of WT or ATP8b1^−/− HepG2 cells pre-incubated with phospholipase inhibitors at 20° C. were supplemented with NBD-PE followed by incubation for up to 60 min to allow lipid internalization. Cells were subjected to back-exchange with BSA, followed by TBSS wash, and visualization by confocal laser scanning microscopy. FIRE look-up table (ImageJ) was used to highlight intensity variations in PIP2 flip. Images are representative of three independent experiments. Scale bar: 20 μm.
FIG. 8C is a graph showing quantification of flipped NBD-PIP2 in WT and ATP8b1^−/− HePG2 cells (N=25 cells, values are mean±SD; **** show p<0.0001 by t-test.
FIG. 8D is a graph showing quantification of flipped NBD-PE in WT and ATP8b1^−/− HePG2 cells (N=25 cells, values are mean±SD; **** show p<0.0001 by t-test. […]

Counter-ions that a name gives are not always drawn.

Regarding `CCCCCCCC/C=C\CCCCCCCC(=O)OC[C@H](COP(=O)(O)O[C@@H]1[C@H](O)[C@H](O)[C@@H](OP(=O)(O)O)[C@H](OP(=O)(O)O)[C@H]1O)OC(=O)CCCCCCC/C=C\CCCCCCCC` [PIP2, phosphatidylinositol-4,5-bisphosphate], the “ATPase activity of full-length ATP8B1” value at human ATP8B1 (300 μM lipid) is reported as “notable increase in ATPase activity”. For the compound `COC(=O)/C=C/C(=O)OC` [dimethyl fumarate], on GsdmD, the “effect on GsdmD” value is recorded as “promotes succination of GsdmD”. Turning to NBD-PE, the “NBD-lipid flip” value at ATP8B1 proteoliposomes was “No significant changes”. Besides, in experiment [1], the “flip of NBD-lipid in ATP8B1−/− vs. WT cells” value is recorded as “no differences”. In the case of phosphatidylcholine [PC], on human ATP8B1 (higher than PIP2), the “EC50 of stimulated activity of ATP8B1 relative to PIP2” value is 1.75 fold.

The record behind these values is patent US20250340885A1, “COMPOSITIONS AND METHODS FOR MODULATING CONDITIONS ASSOCIATED WITH ALTERED ATP8B1 FUNCTION” (CLEVELAND STATE UNIVERSITY, priority 2024, published 2025).
